In ChEMBL document CHEMBL5154681, “Small Amphiphilic Peptides: Activity Against a Broad Range of Drug-Resistant Bacteria and Structural Insight into Membranolytic Properties” (J Med Chem, 2022):
Values after ≈ are worked out from the molar mass of the structure shown. Active and inactive are the calls of the source. No cut-off for these calls is given here. Square brackets hold non-standard residues; d marks the D form. Peptide text beside a SMILES is read from it. Dip = N[C@H](C(=O)O)C(c1ccccc1)c1ccccc1; 2Nal = N[C@@H](Cc1ccc2ccccc2c1)C(=O)O

Assays:
[1] = Hemolytic activity in human RBC assessed as hemolysis incubated for 2 hrs by spectrophotometer analysis; type: toxicity, cell-based, Erythrocyte; details: human red blood cells (erythrocytes)
[2] = test system: Staphylococcus aureus; test: Antibacterial activity against methicillin resistant Staphylococcus aureus ATCC BAA-1556 incubated for 24 hrs by microtiter plate method; type: functional; details: Staphylococcus aureus, ATCC BAA-1556, 24 h, read-out: MIC
[3] = test system: Staphylococcus aureus; test: Antibacterial activity against Staphylococcus aureus ATCC 29213 incubated for 24 hrs by microtiter plate method; type: functional; details: Staphylococcus aureus, ATCC 29213, read-out: MIC
[4] = test system: Pseudomonas aeruginosa; test: Antibacterial activity against Pseudomonas aeruginosa ATCC 27883 incubated for 24 hrs by microtiter plate method; type: functional; details: Pseudomonas aeruginosa, ATCC 27883, 24 h, read-out: MIC
[5] = Cytotoxicity against HEK293 assessed as cell viability at 250 ug/ml incubated for 24 hrs by microplate spectrophotometer analysis method relative to control; type: toxicity, cell-based; details: human, HEK293 cells, at 250 µg/mL, read-out: Activity
[6] = test system: MRC5; test: Cytotoxicity against human MRC-5 assessed as cell viability at 250 ug/ml incubated for 24 hrs by microplate spectrophotometer analysis method; type: toxicity, cell-based; details: mrc5, 24 h, dose 250 µg/ml
[7] = test system: HepaRG; test: Cytotoxicity against human HPRGC10 assessed as cell viability at 250 ug/ml incubated for 24 hrs by microplate spectrophotometer analysis method relative to control; type: functional; details: read-out: Activity
[8] = test system: Lipid bilayer; test: Membrano-lytic effect in bacterial inner membrane mimic DOPC/DOPG (7:3) large unilamellar vesicles assessed as calcein leakage measured upto 100 mins for every 10 mins by multimode microplate reader assay; type: cell membranes; details: dose 5-50 µg/ml, DDE = dose-dependent effect
[9] = test system: Escherichia coli; test: Bactericidal activity against Escherichia coli ATCC BAA-2452 assessed as time required for complete reduction of bacterial growth at MIC by counting formed colonies; type: functional
[10] = test system: Escherichia coli; test: Bactericidal activity against Escherichia coli ATCC BAA-2452 assessed as time required for complete reduction of bacterial growth at 4 times MIC by counting formed colonies; type: functional
[11] = test system: Staphylococcus aureus; test: Bactericidal activity against methicillin resistant Staphylococcus aureus ATCC BAA-1556 assessed as time required for complete reduction of bacterial growth at MIC by counting formed colonies; type: functional
[12] = test system: Staphylococcus aureus; test: Bactericidal activity against methicillin resistant Staphylococcus aureus ATCC BAA-1556 assessed as time required for complete reduction of bacterial growth at 4 times MIC by counting formed colonies; type: functional
[13] = test system: Lipid bilayer; test: Membrano-lytic effect in mammalian membrane mimic DOPC/cholesterol (10:1) large unilamellar vesicles assessed as calcein leakage measured at 50 microg/ml measured upto 100 mins for every 10 mins by multimode microplate reader assay; type: cell membranes; details: dose 50.0 µg/ml
[14] = test system: Cell membrane; test: Membrano-lytic effect in cytoplasmic membrane of methicillin resistant Staphylococcus aureus ATCC BAA-1556 assessed as disruption by measuring propidium iodide fluorescence at MIC incubated for 1 hr by FACscan flow cytometer analysis
[15] = Proteolytic stability in human plasma at 100 uM incubated for 30 mins by Q-TOF LC/MS analysis relative to control; type: ADME, cell-free; details: read-out: Stability
[16] = Proteolytic stability in human plasma at 100 uM incubated for 24 hrs by Q-TOF LC/MS analysis relative to control; type: ADME, cell-free; details: read-out: Stability
[17] = test system: Lipid bilayer; test: Induction of membrane disruption in bacterial inner membrane mimic DOPC/DOPG (7:3) large unilamellar vesicles assessed as decrease in particle size of liposome at 1:1 compound to lipid ratio measured after 24 hrs by dynamic light scattering analysis; type: cell membranes
[18] = test system: Cell membrane; test: Membrano-lytic effect in cytoplasmic membrane of methicillin resistant Staphylococcus aureus ATCC BAA-1556 assessed as disruption by measuring propidium iodide fluorescence incubated for 1 hr by FACscan flow cytometer analysis; details: DDE = dose-dependent effect
[19] = test system: Cell membrane; test: Membrano-lytic effect in cytoplasmic membrane of Escherichia coli ATCC BAA-2452 assessed as disruption by measuring propidium iodide fluorescence incubated for 1 hr by FACscan flow cytometer analysis; details: DDE = dose-dependent effect
[20] = test system: Escherichia coli; test: Antibacterial activity against Escherichia coli ATCC 25922 incubated for 24 hrs by microtiter plate method; type: functional; details: Escherichia coli, ATCC 25922, 24 h, read-out: MIC
[21] = test system: HEK293; test: Cytotoxicity against HEK293 assessed as cell viability measured after 24 hrs by microplate spectrophotometer analysis; type: toxicity, cell-based; details: human, hek293, 24 h, DDE = dose-dependent effect, dose < 250 µg/ml
[22] = test system: MRC5; test: Cytotoxicity against human MRC-5 assessed as cell viability measured after 24 hrs by microplate spectrophotometer analysis; type: toxicity, cell-based; details: mrc5, 24 h, DDE = dose-dependent effect, dose < 250 µg/ml
[23] = test system: HepaRG; test: Cytotoxicity against human HPRGC10 assessed as cell viability measured after 24 hrs by microplate spectrophotometer analysis; type: functional, cell-based; details: dose <= 250.0 µg/ml, DDE = dose-dependent effect

| Structure (SMILES) | HC50 at 2 h [1] [µg/mL] | MIC [2] [µg/mL] | MIC [3] [µg/mL] | MIC [4] [µg/mL] | Activity [8] | Time [9] [h] | Time [10] [h] | Time [11] [h] | Time [12] [h] | Activity [13] [%] | Activity [14] [%] | remaining at 0.5 h, 100 µM [15] [%] | remaining at 24 h, 100 µM [16] [%] | Activity [17] | Activity [18] | Activity [19] | other results |
| --- | --- | --- | --- | --- | --- | --- | --- | --- | --- | --- | --- | --- | --- | --- | --- | --- | --- |
| N=C(N)NCCC[C@H](NC(=O)[C@H](CCCNC(=N)N)NC(=O)[C@H](CCCNC(=N)N)NC(=O)[C@@H](N)CCCNC(=N)N)C(=O)N[C@@H](Cc1ccc2ccccc2c1)C(=O)N[C@@H](Cc1ccc2ccccc2c1)C(=O)N[C@@H](Cc1ccc2ccccc2c1)C(=O)O (H-RRRR[2Nal][2Nal][2Nal]-OH) | 130 | 6.2 (≈ 5.02 µM) | 6.2 (≈ 5.02 µM) | 25 (≈ 20.3 µM) | Dde | 4 | 2.5 | 3 | 2 | 6 | 35 | 62 | 32 | Active | Dde | Dde | viability at 24 h, 250 ug/ml [5]: 69%; Activity [6]: Non-Toxic; viability at 250 µg/mL [7]: 47% |
| N=C(N)NCCC[C@H](NC(=O)[C@H](CCCNC(=N)N)NC(=O)[C@@H](N)CCCNC(=N)N)C(=O)N[C@@H](CCCNC(=N)N)C(=O)N[C@H](C(=O)N[C@H](C(=O)N[C@H](C(=O)O)C(c1ccccc1)c1ccccc1)C(c1ccccc1)c1ccccc1)C(c1ccccc1)c1ccccc1 (H-RRRR[Dip][Dip][Dip]-OH) | 145 | 6.2 (≈ 4.72 µM) | 6.2 (≈ 4.72 µM) | 12.5 (≈ 9.52 µM) | Dde | 4 | 2.5 | 3 | 2 | 8 | 35 | 69 | 21 | Active | Dde | Dde | MIC [20]: 12.5 µg/mL (≈ 9.52 µM); Activity [21]: Dde; Activity [22]: Dde; Activity [23]: Dde |
